In patent US12559733B2, “Optimization of type IV BRAF inhibitors for the treatment of melanoma” (UNIVERSITY OF SOUTH CAROLINA, priority 2020, dated 2026):
Where a SMILES comes first, the peptide text is derived from it. Bridges are numbered along the chain shown (N, C = ends). Where no end group is shown, it is not given here. [ ]: non-standard residue; d: D form. The star is where a group is joined. NMeR = CN[C@@H](CCCNC(=N)N)C(=O)O; X1 = CC(C)CCOc1ccc(CCN*)cc1; Orn = NCCC[C@H](N)C(=O)O; Bz = O=C(c1ccccc1)*

Tested on: not listed separately
Assay: Parallel artificial membrane permeability assay (PAMPA)
Type: in vitro ADME
Conditions: phospholipid and dodecane artificial membrane, mass spectroscopy
Procedure: A parallel artificial membrane permeability assay (PAMPA) was carried out using phospholipid and dodecane as the artificial membrane.

Row | Molecule | passive permeability
1 | CC[C@H](C)[C@H](NC(=O)[C@H](CC(N)=O)NC(=O)[C@@H](NC(=O)[C@H](Cc1cnc[nH]1)NC(=O)[C@H](CCCNC(=N)N)NC(=O)[C@@H](NC(=O)[C@H](CCCCN)NC(=O)[C@H](CCCNC(=N)N)NC(=O)[C@H](CC(C)C)NC(=O)[C@@H](NC(=O)CN)C(C)C)[C@@H](C)O)C(C)C)C(=O)N[C@@H](CC(C)C)C(=O)N[C@@H](CC(C)C)C(=O)N[C@@H](Cc1ccccc1)C(=O)N[C@@H](CCSC)C(=O)NCC(=O)N[C@@H](Cc1ccc(O)cc1)C(=O)N[C@@H](CO)C(=O)N[C@H](C(=O)O)[C@@H](C)O [SEQ ID NO: 1] | no detectable trace of passive permeability
2 | CSCC[C@H](NC(=O)[C@H](Cc1ccccc1)NC(=O)[C@H](CC(C)C)NC(=O)[C@H](CC(C)C)NC(=O)[C@@H]1CCC(=O)NCCCC[C@H](NC(=O)[C@H](CCCCN)NC(=O)[C@H](CCCNC(=N)N)NC(=O)[C@@H](N)CC(C)C)C(=O)N[C@@H](CCCNC(=N)N)C(=O)N[C@@H](Cc2c[nH]cn2)C(=O)N[C@@H](C(C)C)C(=O)N[C@@H](C)C(=O)N1)C(=O)NCC(N)=O [compound 38] | no detectable trace of passive permeability
3 | CC(C)[C@@H]1NC(=O)[C@H](Cc2c[nH]cn2)NC(=O)[C@H](CCCNC(=N)N)NC(=O)[C@@H](N)CCCCNC(=O)CC[C@@H](C(N)=O)NC(=O)[C@H](C)NC1=O [compound 48] (H-KRHVAE-NH2; lactam 1-6) | no detectable trace of passive permeability
4 | CC(C)CCOc1ccc(CCNC(=O)[C@@H]2CCC(=O)NCCCC[C@H](NC(=O)c3ccccc3)C(=O)N(C)[C@@H](CCCNC(=N)N)C(=O)N[C@H](C)C(=O)N3CCC[C@H]3C(=O)N[C@@H](C)C(=O)N2)cc1 [compound 64] (Bz-K[NMeR][dA]PAE-X1; lactam 1-6) | no detectable trace of passive permeability

Tested on: NRASQ61K-mutant SBcl2 melanoma cells
Assay: Western blotting of MEK/ERK signalling in melanoma cells treated with peptide and PLX4032
Type: cell-based, human
Conditions: FIG. 2A, cells electroporated with peptide, 1 μM PLX4032 1 hour or DMSO
Procedure: Following recovery at 37° C. for 30 minutes, the cells were treated with 1 μM PLX4032 for 1 hour or DMSO as a vehicle control. Subsequently, the cells were harvested, lysed using RIPA buffer and analyzed by Western blotting using the indicated antibodies. […] Four hours prior to harvest, the cells were treated with 1 μM vemurafenib (PLX4032), or the same volume of DMSO as vehicle control. RIPA buffer lysates were subjected to Western blotting using the indicated antibodies. Detection of Hsp90 served as a representative loading control.
NRAS^Q61K-mutant SBCl2 melanoma cells were electroporated with the BioRad Gene Pulser XCell™ in the presence of the indicated concentrations of peptide. Following recovery at 37° C. for 30 minutes, cells were treated with 1 μM PLX4032 for 1 hour or DMSO as a vehicle control. Subsequently, the cells were harvested, lysed using RIPA buffer, and analyzed by Western blotting using the indicated antibodies.

Row | Molecule | downstream signaling of MEK and ERK (pMEK, pERK)
5 | CC[C@H](C)[C@H](NC(=O)[C@H](CC(N)=O)NC(=O)[C@@H](NC(=O)[C@H](Cc1cnc[nH]1)NC(=O)[C@H](CCCNC(=N)N)NC(=O)[C@@H](NC(=O)[C@H](CCCCN)NC(=O)[C@H](CCCNC(=N)N)NC(=O)[C@H](CC(C)C)NC(=O)[C@@H](NC(=O)CN)C(C)C)[C@@H](C)O)C(C)C)C(=O)N[C@@H](CC(C)C)C(=O)N[C@@H](CC(C)C)C(=O)N[C@@H](Cc1ccccc1)C(=O)N[C@@H](CCSC)C(=O)NCC(=O)N[C@@H](Cc1ccc(O)cc1)C(=O)N[C@@H](CO)C(=O)N[C@H](C(=O)O)[C@@H](C)O [SEQ ID NO: 1] | reduce downstream signaling of MEK and ERK

Target: T1, B-Raf (Homo sapiens, UniProt P15056)
Assay: Isothermal Titration Calorimetry (ITC) of B-Raf binding of peptides
Conditions: change in enthalpy
Description: Isothermal Titration Calorimetry (ITC) of B-Raf Binding of Peptides
An isothermal titration calorimeter composed of two identical cells surrounded by an adiabatic jacket was used to perform ITC measurements. The thermopile/thermocouple circuits were used to detect temperature differences between a reference cell (filled with buffer or water) and a sample cell containing the macromolecule. During an experiment, ligand is titrated into the sample cell in precisely known aliquots, causing heat to be either taken up or evolved (depending on the nature of the reaction). Measurements consist of the time-dependent input of power required to maintain equal temperatures between the sample and reference cells. In an exothermic reaction, the temperature in the sample cell increases upon addition of ligand. This causes the feedback power to the sample cell to be decreased (remember: a reference power is applied to the reference cell) in order to maintain an equal temperature between the two cells. In an endothermic reaction, the opposite occurs; the feedback circuit increases the power in order to maintain a constant temperature (isothermic/isothermal operation). […] The pattern of these heat effects as a function of the molar ratio [ligand]/[macromolecule] can then be analyzed to give the thermodynamic parameters of the interaction under study.

T1 sequence (P15056 whole entry): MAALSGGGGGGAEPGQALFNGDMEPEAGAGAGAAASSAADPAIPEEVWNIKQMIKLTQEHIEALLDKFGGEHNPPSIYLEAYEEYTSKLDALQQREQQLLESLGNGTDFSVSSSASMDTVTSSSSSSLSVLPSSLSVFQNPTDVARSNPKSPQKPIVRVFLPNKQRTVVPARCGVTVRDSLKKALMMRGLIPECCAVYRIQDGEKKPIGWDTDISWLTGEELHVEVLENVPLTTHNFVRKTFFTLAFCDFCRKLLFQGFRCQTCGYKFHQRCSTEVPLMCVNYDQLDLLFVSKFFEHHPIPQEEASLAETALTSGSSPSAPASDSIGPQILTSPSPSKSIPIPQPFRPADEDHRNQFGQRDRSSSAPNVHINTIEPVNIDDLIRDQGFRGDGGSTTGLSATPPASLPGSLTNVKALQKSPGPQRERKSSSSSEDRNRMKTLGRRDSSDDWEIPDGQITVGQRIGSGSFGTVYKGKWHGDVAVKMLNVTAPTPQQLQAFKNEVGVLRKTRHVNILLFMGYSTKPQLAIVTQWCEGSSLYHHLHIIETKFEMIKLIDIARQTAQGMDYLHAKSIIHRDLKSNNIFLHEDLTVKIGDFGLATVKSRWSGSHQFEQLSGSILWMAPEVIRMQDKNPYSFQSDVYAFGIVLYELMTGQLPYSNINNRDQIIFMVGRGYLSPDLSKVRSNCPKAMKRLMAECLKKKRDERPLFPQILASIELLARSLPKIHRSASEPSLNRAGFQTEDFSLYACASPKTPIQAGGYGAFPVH

Row | Molecule | ΔH [kcal/mol]
6 | CC[C@H](C)[C@H](NC(=O)[C@H](CC(N)=O)NC(=O)[C@@H](NC(=O)[C@H](Cc1c[nH]cn1)NC(=O)[C@H](CCCNC(=N)N)NC(=O)[C@H](C)NC(=O)[C@H](CCCCN)NC(=O)[C@H](CCCNC(=N)N)NC(=O)[C@H](CC(C)C)NC(=O)[C@@H](NC(=O)CN)C(C)C)C(C)C)C(=O)N[C@@H](CC(C)C)C(=O)N[C@@H](CC(C)C)C(=O)N[C@@H](Cc1ccccc1)C(=O)N[C@@H](CCSC)C(=O)NCC(=O)N[C@@H](Cc1ccc(O)cc1)C(=O)N[C@@H](CO)C(=O)N[C@H](C(=O)O)[C@@H](C)O [SEQ ID NO: 8] | -8.32

Same assay, conditions: change in entropy, text b156

Row | Molecule | ΔS [J/mol·K]
7 | CC[C@H](C)[C@H](NC(=O)[C@H](CC(N)=O)NC(=O)[C@@H](NC(=O)[C@H](Cc1c[nH]cn1)NC(=O)[C@H](CCCNC(=N)N)NC(=O)[C@H](C)NC(=O)[C@H](CCCCN)NC(=O)[C@H](CCCNC(=N)N)NC(=O)[C@H](CC(C)C)NC(=O)[C@@H](NC(=O)CN)C(C)C)C(C)C)C(=O)N[C@@H](CC(C)C)C(=O)N[C@@H](CC(C)C)C(=O)N[C@@H](Cc1ccccc1)C(=O)N[C@@H](CCSC)C(=O)NCC(=O)N[C@@H](Cc1ccc(O)cc1)C(=O)N[C@@H](CO)C(=O)N[C@H](C(=O)O)[C@@H](C)O [SEQ ID NO: 8] | −28.4

Tested on: SBcl2 melanoma cell
Assay: Melanoma cell growth / colony formation
Type: cell-based, human
Conditions: SBcl2 melanoma cells

Row | Molecule | concentration that impaired cell growth [µM]
8 | GVLAATAAVNALLFAGYST [SEQ ID NO: 68] | 7.2

Same assay, conditions: control vs FAM-TAT-SEQ ID NO: 17

Row | Molecule | growth-impairing concentration relative to the test sequence [fold]
9 | GVLAATAAVNALLFAGYST [SEQ ID NO: 68] | 4

Target: T1, B-Raf
Assay: Dissociation constant (Kd) determination from intrinsic Trp fluorescence (ITF)
Type: binding
Conditions: not given

Row | Molecule | Kd [nM]
10 | CSCC[C@H](NC(=O)[C@H](Cc1ccccc1)NC(=O)[C@H](CC(C)C)NC(=O)[C@H](CC(C)C)NC(=O)[C@@H]1CCC(=O)NCCCC[C@H](N)C(=O)N[C@@H](CCCNC(=N)N)C(=O)N[C@@H](Cc2c[nH]cn2)C(=O)N[C@@H](C(C)C)C(=O)N[C@@H](C)C(=O)N1)C(=O)NCC(N)=O [compound 47] (H-KRHVAELLFMG-NH2; lactam 1-6) | 590 ± 20
11 | CC(C)[C@@H]1NC(=O)[C@H](Cc2c[nH]cn2)NC(=O)[C@H](CCCNC(=N)N)NC(=O)[C@@H](N)CCCCNC(=O)CC[C@@H](C(N)=O)NC(=O)[C@H](C)NC1=O [compound 48] (H-KRHVAE-NH2; lactam 1-6) | 300 ± 30
12 | CSCC[C@H](NC(=O)[C@H](Cc1ccccc1)NC(=O)[C@H](CC(C)C)NC(=O)[C@H](CC(C)C)NC(=O)[C@@H]1CCC(=O)NCCCC[C@H](NC(=O)[C@H](CCCCN)NC(=O)[C@H](CCCNC(=N)N)NC(=O)[C@H](CC(C)C)NC(=O)[C@@H](N)C(C)C)C(=O)N[C@@H](CCCNC(=N)N)C(=O)N[C@@H](Cc2c[nH]cn2)C(=O)N[C@@H](C(C)C)C(=O)N[C@@H](CC(N)=O)C(=O)N1)C(=O)NCC(N)=O [compound 53] | 1890 ± 330
13 | CSCC[C@H](NC(=O)[C@H](Cc1ccccc1)NC(=O)[C@H](CCC(C)C)NC(=O)[C@H](CC(C)C)NC(=O)[C@@H]1CCC(=O)NCCC[C@H](NC(=O)[C@H](CCCCN)NC(=O)[C@H](CCCNC(=N)N)NC(=O)[C@H](CC(C)C)NC(=O)[C@@H](N)C(C)C)C(=O)N[C@@H](CCCNC(=N)N)C(=O)N[C@@H](Cc2c[nH]cn2)C(=O)N[C@@H](C(C)C)C(=O)N[C@@H](C)C(=O)N1)C(=O)NCC(N)=O [compound 57] | 430 ± 30
14 | CC[C@H](C)[C@H](NC(=O)[C@H](CC(C)C)NC(=O)[C@@H]1CCC(=O)NCCC[C@H](NC(=O)[C@H](CCCCN)NC(=O)[C@H](CCCNC(=N)N)NC(=O)[C@H](CC(C)C)NC(=O)[C@@H](N)C(C)C)C(=O)N[C@@H](CCCNC(=N)N)C(=O)N[C@@H](Cc2c[nH]cn2)C(=O)N[C@@H](C(C)C)C(=O)N[C@@H](C)C(=O)N1)C(=O)N[C@@H](Cc1ccccc1)C(=O)N[C@@H](CCSC)C(=O)NCC(N)=O [compound 58] (H-VLRK[Orn]RHVAELIFMG-NH2; lactam 5-10; N-terminus assumed) | 170 ± 60
15 | CSCC[C@H](NC(=O)[C@H](Cc1ccccc1)NC(=O)[C@H](CC(C)C)NC(=O)[C@H](CC(C)C)NC(=O)[C@@H]1CCC(=O)NCCCC[C@H](NC(=O)[C@H](CCCCN)NC(=O)[C@H](CCCNC(=N)N)NC(=O)[C@H](CC(C)C)NC(=O)[C@@H](N)C(C)C)C(=O)N[C@@H](CCCNC(=N)N)C(=O)N[C@@H](Cc2c[nH]cn2)C(=O)N[C@@H](C(C)C)C(=O)N[C@@H](C)C(=O)N1)C(=O)NCC(N)=O [compound 59] | 61 ± 10
16 | CSCC[C@H](NC(=O)[C@H](Cc1ccccc1)NC(=O)[C@H](CC(C)C)NC(=O)[C@H](CC(C)C)NC(=O)[C@@H]1CCC(=O)NCCCC[C@H](NC(=O)[C@H](CCCCN)NC(=O)[C@H](CCCNC(=N)N)NC(=O)[C@H](CC(C)C)NC(=O)[C@@H](N)C(C)C)C(=O)N(C)[C@@H](CCCNC(=N)N)C(=O)N[C@@H](Cc2c[nH]cn2)C(=O)N[C@@H](C(C)C)C(=O)N[C@@H](C)C(=O)N1)C(=O)NCC(N)=O [compound 60] | 39 ± 20
17 | CSCC[C@H](NC(=O)[C@H](Cc1ccccc1)NC(=O)[C@H](CC(C)C)NC(=O)[C@H](CC(C)C)NC(=O)[C@@H]1CCC(=O)NCCCC[C@H](N)C(=O)N[C@@H](CCCNC(=N)N)C(=O)N[C@@H](Cc2c[nH]cn2)C(=O)N2CCC[C@H]2C(=O)N[C@@H](C)C(=O)N1)C(=O)NCC(N)=O [compound 61] (H-KRHPAELLFMG-NH2; lactam 1-6) | 160 ± 20

Same assay, conditions: FIG. 1, unit not given

Row | Molecule | Kd, binding affinity to the dimer forming interface of B-Raf
18 | GVLRKTHHVNILGFWGYST [SEQ ID NO: 2] | no measurable binding
19 | GVLRKTRFVNILLFMGYST [SEQ ID NO: 9] | no measurable binding
20 | GVLRKTRHVNILLDMGYST [SEQ ID NO:14] | no measurable binding

Same assay, conditions: Table 2, binding affinity with BRAF, cyclized vs linear peptides; read-out: Kd

Row | Molecule | Kd [nM]
21 | VLRKTRHVNILLFM [compound 16] | 5750 ± 1200

Target: dimer forming interface (Homo sapiens, UniProt P15056)
Assay: Kd (μM)
Conditions: not given

Chain of dimer forming interface (P15056 2-766 limits assumed): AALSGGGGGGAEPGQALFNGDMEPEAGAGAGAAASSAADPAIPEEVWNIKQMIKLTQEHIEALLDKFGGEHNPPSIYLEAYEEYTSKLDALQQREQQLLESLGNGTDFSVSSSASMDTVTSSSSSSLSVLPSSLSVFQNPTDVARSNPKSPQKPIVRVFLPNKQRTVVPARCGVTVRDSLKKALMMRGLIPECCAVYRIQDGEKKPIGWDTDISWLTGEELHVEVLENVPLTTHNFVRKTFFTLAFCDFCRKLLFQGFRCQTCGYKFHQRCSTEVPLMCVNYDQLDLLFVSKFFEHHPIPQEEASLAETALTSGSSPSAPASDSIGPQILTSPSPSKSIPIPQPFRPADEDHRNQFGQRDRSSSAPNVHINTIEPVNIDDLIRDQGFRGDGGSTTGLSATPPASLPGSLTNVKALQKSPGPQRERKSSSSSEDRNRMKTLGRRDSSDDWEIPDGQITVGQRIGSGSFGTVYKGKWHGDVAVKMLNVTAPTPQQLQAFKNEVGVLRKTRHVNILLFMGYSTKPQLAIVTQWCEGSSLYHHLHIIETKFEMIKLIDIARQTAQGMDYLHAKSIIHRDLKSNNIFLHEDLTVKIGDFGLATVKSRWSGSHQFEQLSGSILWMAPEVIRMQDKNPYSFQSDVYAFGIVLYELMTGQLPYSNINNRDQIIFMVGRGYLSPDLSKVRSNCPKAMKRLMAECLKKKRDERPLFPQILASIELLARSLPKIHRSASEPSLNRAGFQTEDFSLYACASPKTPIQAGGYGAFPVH

Row | Molecule | Kd [nM]
22 | CC[C@H](C)[C@H](NC(=O)[C@H](CC(N)=O)NC(=O)[C@@H](NC(=O)[C@H](Cc1c[nH]cn1)NC(=O)[C@H](CCCNC(=N)N)NC(=O)[C@@H](NC(=O)[C@H](CCCCN)NC(=O)[C@H](CCCNC(=N)N)NC(=O)[C@H](CC(C)C)NC(=O)[C@@H](NC(C)=O)C(C)C)[C@@H](C)O)C(C)C)C(=O)N[C@@H](CC(C)C)C(=O)N[C@@H](CC(C)C)C(=O)N[C@@H](Cc1ccccc1)C(=O)N[C@@H](CCSC)C(=O)NCC(=O)O [compound 19] | 800 ± 83
23 | LLKTRHVNILLFMG [compound 32] | 550 ± 105
24 | LRKTRHVNILLFMG [SEQ ID NO: 31] | 190 ± 130
25 | VARKTRHVNILLFMG [compound 21] | 450 ± 30
26 | VLAKTRHVNILLFMG [SEQ ID NO: 22] | 360 ± 30
27 | VLRKTAHVNILLFMG [compound 24] | 2400 ± 350
28 | VLRKTRAVNILLFMG [compound 25] | 2700 ± 400
29 | VLRKTRHVNALLFMG [compound 27] | 2690 ± 350
30 | VLRKTRHVNIALFMG [compound 28] | 1020 ± 140
31 | VLRKTRHVNILLAMG [compound 29] | 570 ± 80
32 | VLRKTRHVNILLFAG [compound 30] | 540 ± 150
